# According to patent US10160762B2, “6-alkyl dihydropyrazolopyrimidinone compounds as PDE2 inhibitors” (Merck Sharp & Dohme Corp., priority 2015, dated 2018):
# Biological target: T1, Rhesus PDE2A3 (Macaca mulatta, UniProt B3VTJ2)
# T1 construct: made in house; host or cells: AD293 cells, transient transfection; supernatant of sonicated lysate
# T1 sequence (B3VTJ2 1-941): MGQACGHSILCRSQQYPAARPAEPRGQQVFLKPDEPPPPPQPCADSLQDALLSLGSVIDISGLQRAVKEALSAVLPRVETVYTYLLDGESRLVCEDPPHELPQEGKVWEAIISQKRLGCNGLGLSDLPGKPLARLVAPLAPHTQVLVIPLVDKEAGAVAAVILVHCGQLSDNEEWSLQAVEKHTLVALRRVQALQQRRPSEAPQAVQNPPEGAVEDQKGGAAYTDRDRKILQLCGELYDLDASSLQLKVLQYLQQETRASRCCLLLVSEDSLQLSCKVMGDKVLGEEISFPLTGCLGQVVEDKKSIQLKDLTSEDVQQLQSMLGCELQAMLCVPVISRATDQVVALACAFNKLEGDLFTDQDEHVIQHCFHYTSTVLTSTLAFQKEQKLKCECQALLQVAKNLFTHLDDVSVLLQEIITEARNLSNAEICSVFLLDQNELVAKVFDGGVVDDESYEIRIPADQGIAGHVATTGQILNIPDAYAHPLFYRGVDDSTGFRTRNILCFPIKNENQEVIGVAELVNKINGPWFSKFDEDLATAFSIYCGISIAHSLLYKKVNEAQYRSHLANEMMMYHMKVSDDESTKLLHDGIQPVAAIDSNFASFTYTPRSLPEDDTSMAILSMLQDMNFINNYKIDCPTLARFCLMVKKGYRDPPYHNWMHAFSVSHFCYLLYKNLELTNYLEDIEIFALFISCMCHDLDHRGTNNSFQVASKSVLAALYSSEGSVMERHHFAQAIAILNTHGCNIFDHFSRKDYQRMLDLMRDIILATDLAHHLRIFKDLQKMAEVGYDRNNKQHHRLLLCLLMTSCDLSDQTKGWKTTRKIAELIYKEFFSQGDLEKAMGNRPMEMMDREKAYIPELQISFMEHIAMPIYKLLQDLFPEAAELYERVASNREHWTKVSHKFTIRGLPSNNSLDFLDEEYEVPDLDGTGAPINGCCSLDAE
# Assay: PDE2 fluorescence polarization (IMAP FP) inhibition assay, rhesus PDE2A3
# Format: biochemical, rhesus macaque
# Conditions: Lab B; read-out: Rhesus PDE2 Ki (nM) Lab B
# In short: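 Enzyme source was the lysate supernatant of AD293 cells transiently expressing rhesus PDE2A3, diluted to give 20% conversion of 50 nM FAM-cAMP, with 1 µM cGMP as activator. Buffer was 10 mM Tris pH 7.2, 10 mM MgCl2, 1 mM DTT.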
row,Structure (SMILES),Ki [nM]
1,"Cc1nc2c(c(C=O)nn2C(C)c2ccc(C(F)(F)F)cc2)c(=O)[nH]1 (stereo not shown) [Example 248, 6-Methyl-4-oxo-1-(1-(4-(trifluoromethyl)phenyl)ethyl)-4,5-dihydro-1H-pyrazolo[3,4-d]pyrimidine-3-carbaldehyde]",53
2,"Cc1nc2c(c(CO)nn2C(c2ccc(C(F)(F)F)c(F)c2)C(C)C)c(=O)[nH]1 (single isomer, unassigned) [Example 87, (S)- or (R)-1-(1-(3-Fluoro-4-(trifluoromethyl)phenyl)-2-methylpropyl)-3-(hydroxymethyl)-6-methyl-1H-pyrazolo[3,4-d]pyrimidin-4(5H)-one]",3.2
3,"COc1cccc(Cc2nc3c(c(CF)nn3C(C)c3ccc(C(F)(F)F)cc3)c(=O)[nH]2)c1 (single isomer, unassigned) [Example 221, (S)- or (R)-3-(Fluoromethyl)-6-(3-methoxybenzyl)-1-(1-(4-(trifluoromethyl)phenyl)ethyl)-1H-pyrazolo[3,4-d]pyrimidin-4(5H)-one]",1.9
4,"Cc1nc2c(c(CO)nn2C(c2ccc(C(F)(F)F)cc2)C2(C)CC2)c(=O)[nH]1 (single isomer, unassigned) [Example 24, (R)- or (S)-3-(Hydroxymethyl)-6-methyl-1-((1-methylcyclopropyl)(4-(trifluoromethyl)phenyl)methyl)-1H-pyrazolo[3,4-d]pyrimidin-4(5H)-one]",1.9
5,"Cc1nc2c(c(CC(F)F)nn2C(C)c2ccc(C(F)(F)F)cc2)c(=O)[nH]1 (single isomer, unassigned) [Example 286]",3.7
6,"Cc1nc2c(c(CF)nn2C(c2ccc(OC(F)(F)F)cc2)C2CC2)c(=O)[nH]1 (single isomer, unassigned) [Example 224, (R)- or (S)-1-(Cyclopropyl(4-(trifluoromethoxy)phenyl)methyl)-3-(fluoromethyl)-6-methyl-1,5-dihydro-4H-pyrazolo[3,4-d]pyrimidin-4-one]",0.94
7,"Cc1nc2c(c(CO)nn2C(C)c2ccc(C(F)(F)F)cc2Cl)c(=O)[nH]1 (single isomer, unassigned) [Example 19, (S)- or (R)-1-(1-(2-Chloro-4-(trifluoromethyl)phenyl)ethyl)-3-(hydroxymethyl)-6-methyl-1H-pyrazolo[3,4-d]pyrimidin-4(5H)-one]",1.9
8,"Cc1nc2c(c(CO)nn2C(C)c2ccc(C(F)(F)F)cc2F)c(=O)[nH]1 (single isomer, unassigned) [Example 17, (S)- or (R)-1-(1-(2-Fluoro-4-(trifluoromethyl)phenyl)ethyl)-3-(hydroxymethyl)-6-methyl-1H-pyrazolo[3,4-d]pyrimidin-4(5H)-one]",1.7

# The remaining compounds from weak to strong by Ki, led by results:
row,Ki [nM],Structure (SMILES)
1,90,"Cc1nc2c(c(CO)nn2C(c2ccc(C(F)(F)F)c(F)c2)C2CC2)c(=O)[nH]1 (single isomer, unassigned) [Example 90, (R)- or (S)-1-(Cyclopropyl(3-fluoro-4-(trifluoromethyl)phenyl)methyl)-3-(hydroxymethyl)-6-methyl-1H-pyrazolo[3,4-d]pyrimidin-4(5H)-one]"
2,69,"Cc1nc2c(c(CC(F)(F)F)nn2C(c2ccc(C(F)(F)F)cc2)C(C)(C)C)c(=O)[nH]1 (single isomer, unassigned) [Example 57, (S)- or (R)-1-(2,2-Dimethyl-1-(4-(trifluoromethyl)phenyl)propyl)-6-methyl-3-(2,2,2-trifluoroethyl)-1H-pyrazolo[3,4-d]pyrimidin-4(5H)-one]"
3,4.2,"Cc1nc2c(c(CO)nn2C(C)c2ccc(S(F)(F)(F)(F)F)cc2)c(=O)[nH]1 (single isomer, unassigned) [Example 77]"
4,1.9,"Cc1nc2c(c(CO)nn2C(c2ccc(OC(F)(F)F)c(F)c2)C2CC2)c(=O)[nH]1 (single isomer, unassigned) [Example 93, (S)- or (R)-1-(Cyclopropyl(3-fluoro-4-(trifluoromethoxy)phenyl)methyl)-3-(hydroxymethyl)-6-methyl-1H-pyrazolo[3,4-d]pyrimidin-4(5H)-one]"
5,1.7,"Cc1nc2c(c(CO)nn2C(C)c2ccc(SC(F)(F)F)cc2)c(=O)[nH]1 (single isomer, unassigned) [Example 23, (S)- or (R)-3-(Hydroxymethyl)-6-methyl-1-(1-(4-(trifluoromethylthio)phenyl)ethyl)-1H-pyrazolo[3,4-d]pyrimidin-4(5H)-one]"
